Values of other authors, collected in article PMC4726456 (Cell, 2014).

Legend:
cellular microtubules = details: ref Piperno et al., 1987; Takemura et al., 1992
tubulin = details: ref Mulder et al., 2009

Row | Compound | Effect on microtubule acetylation levels in cells (cellular microtubules) | Induction of tubulin rings (tubulin)
1 | CC(=O)O[C@H]1C(=O)[C@@]2(C)[C@H]([C@H](OC(=O)c3ccccc3)[C@]3(O)C[C@H](OC(=O)[C@H](O)[C@@H](NC(=O)c4ccccc4)c4ccccc4)C(C)=C1C3(C)C)[C@]1(OC(C)=O)CO[C@@H]1C[C@@H]2O [taxol] | increases acetylation levels | 
2 | Dolastatin-10 |  | induces tubulin rings by curving individual protofilaments
